The results in this text go back to patent publication US20210380548A1, “Fused [1,2,4]Thiadiazine Derivatives Which Act as KAT Inhibitors of the MYST Family” (CTxT Pty Limited, priority 2017, published 2021).

Test [1] deals with T1, TIP60-KAT5 (Homo sapiens, UniProt Q92993).
T1 construct: encoding amino acid residues 2 to 461 (Uniprot Q92993-2) of human KAT5 isoform; made in house; host or cells: E. coli BL21 DE3
Put plainly: Acetyltransferase biochemical assay (AlphaScreen), KAT5. The settings on record: Table 1 (TIP60-KAT5); 0.4 μM Acetyl coenzyme A, histone H4, 10 nM enzyme.

Test [2] deals with T2, MOZ-KAT6A (Homo sapiens, UniProt Q92794, A567V).
T2 construct: encoding amino acid residues 507 to 778 (Uniprot Q92794-1) of human KAT6A; made in house; host or cells: E. coli BL21 DE3
Put plainly: Acetyltransferase biochemical assay (AlphaScreen), KAT6A. The following applies: Table 2 (MOZ-KAT6A); 10 μM Acetyl coenzyme A, histone H3.1, 5 nM enzyme. On the technique in general: Alpha assays give light when donor and acceptor beads are brought close together.

Test [3] has as its target T3, HBO-KAT7 (Homo sapiens, UniProt O95251).
T3 construct: encoding amino acid residues 325 to 611 (Uniprot 095251-1) of human KAT7; made in house; host or cells: E. coli BL21 DE3 RIL
The experiment in a line: Acetyltransferase biochemical assay (AlphaScreen), KAT7. The settings on record: Table 3 (HBO-KAT7); 0.4 μM Acetyl coenzyme A, histone H3.1, 40 nM enzyme.

Test [4] has as its target T4, MOF-KAT8 (Homo sapiens, UniProt Q9H7Z6).
T4 sequence (Q9H7Z6 177-447): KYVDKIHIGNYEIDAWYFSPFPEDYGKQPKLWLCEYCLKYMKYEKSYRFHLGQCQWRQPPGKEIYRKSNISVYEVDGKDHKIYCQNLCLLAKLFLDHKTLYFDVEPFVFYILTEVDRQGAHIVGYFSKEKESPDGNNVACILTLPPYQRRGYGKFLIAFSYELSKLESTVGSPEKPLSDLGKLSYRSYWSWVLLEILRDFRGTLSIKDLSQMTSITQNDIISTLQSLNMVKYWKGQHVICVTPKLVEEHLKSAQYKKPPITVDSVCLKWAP
Put plainly: Acetyltransferase biochemical assay (AlphaScreen), KAT8. The following applies: Table 4 (MOF-KAT8); 0.4 μM Acetyl coenzyme A, histone H4, 20 nM enzyme.

Test [5] has as its system histone H3K14 acetylation (HBO1 mediated) in U2OS cells. Put plainly: Histone H3 Lysine 14 Acetylation Biomarker Assay (96 well, U2OS). The test is classed as cell-based. The following applies: Table 6, H3K14ac, 24 hours incubation, serum free medium. The method, then: Compounds may be tested for their ability to inhibit acetylation of the histone H3K14 marker (which is HBO1 mediated) in the following assay:
The cell line U2OS was seeded at a density of 12,000 cells per well in 96 well optical quality tissue culture plates in RPMI medium and 10% foetal bovine serum, and allowed to adhere for 24 hours under standard culture conditions (37 degree Celsius, 5% CO2). At the end of this period the cells were washed with serum free medium. Compound dilutions prepared in DMSO were added to the serum free medium, with negative control wells reserved for treatment with DMSO only and positive controls receiving a potent inhibitor compound (e.g. Example 36 in WO2016/198507) at 10 μM concentration. After incubation for 24 hours, the cells were fixed with 3.7% formaldehyde in PBS for 20 minutes at room temperature, washed with phosphate buffer saline containing 0.1% Tween 20 and blocked with Odyssey blocking buffer (LI-COR, Lincoln, Nebr.) containing 0.1% TritonX100. Anti-H3K14ac specific antibody (Cell Signalling Technologies) in Odyssey blocking buffer containing 0.1% Tween 20 was added and incubated for 14 hours at 4 degree Celsius. After washing, a secondary antibody labelled with Alexa647 dye (LifeTechnologies) and Hoechst 33342 (1 μg/mL, SigmaAldrich) were added for 1 hour incubation. Plates were washed and read on a PerkinElmer Phenix high content imaging platform. Using a Columbus image analysis pipeline, individual nuclei were located by Hoechst 33342 stain and the acetylation level was calculated from the Alexa647-related intensity in the same area. The resulting mean intensity per cell was directly converted to percent inhibition relative to controls on the same plate and the data fitted against a four-parameter logistic model to determine the 50% inhibitory concentration (IC50).

The target of test [6] is T2, MOZ-KAT6A. Put plainly: Revised Acetyltransferase Biochemical Assay, KAT6A. The following applies: Table 8 (MOZ-KAT6A), 1 μM Acetyl coenzyme A.
The target of test [7] is T3, HBO-KAT7. Put plainly: Revised Acetyltransferase Biochemical Assay, KAT7. The following applies: Table 9 (HBO-KAT7), 1 μM Acetyl coenzyme A.
Test [8] addresses T1, TIP60-KAT5. The experiment in a line: Revised Acetyltransferase Biochemical Assay, KAT5. The settings on record: 10 nM KAT5, 1 μM AcCoA, 100 nM histone H4, 90 min.
Test [9] deals with T5, QKF-KAT6B (Homo sapiens, UniProt Q8WYB5).
T5 construct: purchased SignalChem K315-381BG
Put plainly: Revised Acetyltransferase Biochemical Assay, KAT6B. The settings on record: 8 nM KAT6B, 1 μM AcCoA, 100 nM histone H3.1, 90 min. The source says:
KAT6B was obtained from SignalChem, catalog ID: K315-381BG

Test [10] concerns histone H3K23 acetylation (KATE mediated) in U2OS cells. Put plainly: Histone H3 Lysine 23 Acetylation Biomarker Assay (U2OS). The settings on record: Homo sapiens, 96 well, 24 hours incubation. Format: cell-based. In outline: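 U2OS cells were treated with compound for 24 h, then fixed and immunostained for H3K23ac with Hoechst nuclear counterstain. Per-nucleus Alexa647 intensity was quantified by high-content imaging and converted to % inhibition against DMSO and 10 μM reference-inhibitor controls. IC50 was derived from a four-parameter logistic fit.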

The target in test [11] is T4, MOF-KAT8. The experiment in a line: Revised Acetyltransferase Biochemical Assay, KAT8.

T3 sequence (O95251 with tags, fused parts or gaps): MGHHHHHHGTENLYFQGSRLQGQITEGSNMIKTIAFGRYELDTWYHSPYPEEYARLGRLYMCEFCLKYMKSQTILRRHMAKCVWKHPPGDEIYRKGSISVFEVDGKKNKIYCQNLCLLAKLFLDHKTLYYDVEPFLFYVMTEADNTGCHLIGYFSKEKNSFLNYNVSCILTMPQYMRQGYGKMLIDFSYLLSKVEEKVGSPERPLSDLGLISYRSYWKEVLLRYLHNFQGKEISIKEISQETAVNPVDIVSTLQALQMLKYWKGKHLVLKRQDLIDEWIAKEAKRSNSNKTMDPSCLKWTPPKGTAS
T1 sequence (Q92993 2-461 isoform Q92993-2): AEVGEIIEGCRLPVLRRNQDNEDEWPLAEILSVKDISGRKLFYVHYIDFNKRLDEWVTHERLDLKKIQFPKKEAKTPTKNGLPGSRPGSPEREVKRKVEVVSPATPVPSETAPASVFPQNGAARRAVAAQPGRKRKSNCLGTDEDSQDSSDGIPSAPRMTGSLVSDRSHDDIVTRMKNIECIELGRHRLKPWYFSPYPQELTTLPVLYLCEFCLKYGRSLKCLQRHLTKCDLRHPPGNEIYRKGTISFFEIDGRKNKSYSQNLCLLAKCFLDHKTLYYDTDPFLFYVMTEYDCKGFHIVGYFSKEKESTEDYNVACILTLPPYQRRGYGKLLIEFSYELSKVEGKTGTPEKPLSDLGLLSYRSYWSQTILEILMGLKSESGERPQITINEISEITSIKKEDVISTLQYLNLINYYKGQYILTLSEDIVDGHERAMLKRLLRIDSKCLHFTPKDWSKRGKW
T2 sequence (Q92794 507-778 A567V limits assumed): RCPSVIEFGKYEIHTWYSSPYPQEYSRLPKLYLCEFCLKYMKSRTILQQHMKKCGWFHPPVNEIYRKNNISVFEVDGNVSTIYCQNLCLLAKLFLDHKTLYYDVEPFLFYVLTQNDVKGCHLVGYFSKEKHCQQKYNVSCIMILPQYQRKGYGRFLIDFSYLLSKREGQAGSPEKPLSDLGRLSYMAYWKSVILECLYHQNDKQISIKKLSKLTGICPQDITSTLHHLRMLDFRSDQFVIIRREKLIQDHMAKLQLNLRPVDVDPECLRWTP
T5 sequence (Q8WYB5 whole entry): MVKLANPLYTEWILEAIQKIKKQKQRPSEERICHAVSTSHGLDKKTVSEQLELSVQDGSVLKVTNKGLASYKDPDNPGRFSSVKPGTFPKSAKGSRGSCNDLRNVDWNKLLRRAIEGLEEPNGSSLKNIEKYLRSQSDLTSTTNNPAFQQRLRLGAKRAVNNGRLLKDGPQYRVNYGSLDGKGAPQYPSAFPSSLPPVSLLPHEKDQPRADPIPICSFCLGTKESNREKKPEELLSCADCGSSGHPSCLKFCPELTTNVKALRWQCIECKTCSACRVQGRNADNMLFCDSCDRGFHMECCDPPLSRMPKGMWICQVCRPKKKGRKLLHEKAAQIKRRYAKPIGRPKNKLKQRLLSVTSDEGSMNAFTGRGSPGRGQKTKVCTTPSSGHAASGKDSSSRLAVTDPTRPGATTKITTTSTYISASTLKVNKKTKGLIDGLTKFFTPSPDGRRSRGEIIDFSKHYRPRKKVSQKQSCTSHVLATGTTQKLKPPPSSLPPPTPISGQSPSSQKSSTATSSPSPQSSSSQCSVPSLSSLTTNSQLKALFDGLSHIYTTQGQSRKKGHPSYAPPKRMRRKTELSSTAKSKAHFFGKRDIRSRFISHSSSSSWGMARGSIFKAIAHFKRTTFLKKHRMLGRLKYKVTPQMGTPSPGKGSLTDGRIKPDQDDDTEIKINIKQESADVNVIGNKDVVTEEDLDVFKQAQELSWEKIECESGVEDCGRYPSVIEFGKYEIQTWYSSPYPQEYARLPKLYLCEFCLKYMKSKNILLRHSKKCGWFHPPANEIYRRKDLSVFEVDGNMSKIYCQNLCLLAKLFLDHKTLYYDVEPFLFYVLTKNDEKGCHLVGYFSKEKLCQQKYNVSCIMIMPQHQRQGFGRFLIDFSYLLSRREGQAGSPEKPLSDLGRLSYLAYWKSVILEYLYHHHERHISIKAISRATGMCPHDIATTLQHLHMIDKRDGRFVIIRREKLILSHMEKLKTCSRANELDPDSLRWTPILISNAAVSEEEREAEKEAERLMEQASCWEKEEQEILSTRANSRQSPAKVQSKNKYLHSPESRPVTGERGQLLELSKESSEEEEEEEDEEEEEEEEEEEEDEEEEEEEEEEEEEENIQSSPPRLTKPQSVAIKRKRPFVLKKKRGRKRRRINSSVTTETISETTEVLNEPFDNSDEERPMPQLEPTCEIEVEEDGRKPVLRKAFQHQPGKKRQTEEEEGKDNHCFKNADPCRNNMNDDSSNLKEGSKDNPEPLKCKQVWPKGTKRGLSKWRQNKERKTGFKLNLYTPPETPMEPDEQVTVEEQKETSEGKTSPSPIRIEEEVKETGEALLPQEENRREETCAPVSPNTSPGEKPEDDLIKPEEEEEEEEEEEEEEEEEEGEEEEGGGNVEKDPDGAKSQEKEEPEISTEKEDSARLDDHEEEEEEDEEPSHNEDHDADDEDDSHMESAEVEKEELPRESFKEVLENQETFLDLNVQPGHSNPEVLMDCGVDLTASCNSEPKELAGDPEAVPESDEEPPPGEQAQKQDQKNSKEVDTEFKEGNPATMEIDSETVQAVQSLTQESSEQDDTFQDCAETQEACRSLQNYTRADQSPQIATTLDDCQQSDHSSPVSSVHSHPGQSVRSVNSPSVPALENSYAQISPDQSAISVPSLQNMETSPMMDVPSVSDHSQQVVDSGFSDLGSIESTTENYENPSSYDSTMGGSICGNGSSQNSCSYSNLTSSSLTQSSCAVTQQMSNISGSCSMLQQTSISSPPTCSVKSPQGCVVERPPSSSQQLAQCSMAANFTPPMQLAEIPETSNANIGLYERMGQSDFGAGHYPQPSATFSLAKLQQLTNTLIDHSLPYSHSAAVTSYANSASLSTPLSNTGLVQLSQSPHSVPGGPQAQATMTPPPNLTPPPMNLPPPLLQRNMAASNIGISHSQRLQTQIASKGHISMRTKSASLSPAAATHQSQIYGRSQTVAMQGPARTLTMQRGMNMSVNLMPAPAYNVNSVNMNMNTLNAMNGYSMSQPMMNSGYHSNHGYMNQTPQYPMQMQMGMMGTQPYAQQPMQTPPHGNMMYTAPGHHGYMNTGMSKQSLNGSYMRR

Broadly, the IC50 is the point on the concentration scale where inhibition reaches its midpoint. Higher therefore signals weaker potency. Turning to `O=C(NCC(c1ccccc1)c1ncco1)C1=Nc2ccccc2S(=O)(=O)N1` (single isomer, unassigned) [Example 136], the IC50 in [1] was 27600 nM; in [2], 8030 nM; in test [3], 633 nM; in test [4], > 125000 nM; in test [5], 7890 nM.
The corresponding values for `[C-]#[N+]c1ccc2c(c1)S(=O)(=O)NC(C(=O)NCC(c1ccccc1)c1ncco1)=N2` (single isomer, unassigned) [Example 142] are 4270 nM, 21.1 nM, 6570 nM, 56700 nM and 17500 nM.
Regarding `[C-]#[N+]c1ccc2c(c1)S(=O)(=O)NC(C(=O)NCC(c1ccccc1)c1ncco1)=N2` (single isomer, unassigned) [Example 143], the IC50 in [1] turned out to be 13800 nM; in [2], 346 nM; in test [3], 1750 nM; in test [4], 30000 nM; in test [5], 14600 nM.
Turning to `O=C(NCC(c1ccccc1)c1ncco1)C1=Nc2ccc(O)cc2S(=O)(=O)N1` (centres unmarked) [Example 8, 7-Hydroxy-N-(2-(oxazol-2-yl)-2-phenylethyl)-2H-benzo[e][1,2,4]thiadiazine-3-carboxamide 1,1-dioxide], the half-inhibitory concentration (IC50) in [1] stood at 4400 nM; in test [3], 1200 nM; in [5] (Homo sapiens, 24 h), 9680 nM; in [6] it was 11 nM; in test [7], 134 nM; in test [8] it was 2010 nM. The figures for the IC50 in test [9], in [10] and in test [11] were 210 nM, 5860 nM and 10500 nM, respectively.
For the molecule `O=C(NCC(c1ccccc1)c1ncco1)C1=Nc2ccc(F)cc2S(=O)(=O)N1` (centres unmarked) [Example 36, 7-fluoro-N-(2-(oxazol-2-yl)-2-phenylethyl)-2H-benzo[e][1,2,4]thiadiazine-3-carboxamide 1,1-dioxide], the IC50 in [1] worked out at 19600 nM; in [2], 661 nM; in test [3], 538 nM; in test [5] (Homo sapiens, 24 h), 9980 nM; in [6], 74 nM; in [7] it was 3380 nM. Besides, the IC50 in test [8] was determined as 5470 nM; in test [9] it was 724 nM; in test [10] it was 263 nM.
As for `C#Cc1ccc2c(c1)S(=O)(=O)NC(C(=O)NCC(c1ccccc1)c1ccccc1)=N2` [Example 38, N-(2,2-diphenylethyl)-7-ethynyl-2H-benzo[e][1,2,4]thiadiazine-3-carboxamide 1,1-dioxide], the half-maximal inhibitory concentration (IC50) came to 1960 nM in test [1]; 532 nM in test [2]; 154 nM in [3]; 1500 nM in [5] (Homo sapiens, 24 h).
`O=C(NCC(c1ccc(F)cc1)c1ccccn1)C1=Nc2ccc(Br)cc2S(=O)(=O)N1` (centres unmarked) [Example 39, 7-bromo-N-(2-(4-fluorophenyl)-2-(pyridin-2-yl)ethyl)-2H-benzo[e][1,2,4]thiadiazine-3-carboxamide 1,1-dioxide]: the IC50 is 5880 nM in test [1]; 192 nM in test [3]; 2490 nM in test [5] (Homo sapiens, 24 h); 32 nM in [6]; 299 nM in [7]; 3060 nM in test [8].
On to `Cc1noc(C(CNC(=O)C2=Nc3ccc(I)cc3S(=O)(=O)N2)c2ccccc2)n1` (centres unmarked) [Example 56], for which the 50% inhibitory concentration (IC50) was determined as 269 nM in test [1]; 80.9 nM in test [2]; 219 nM in test [3]; 650 nM in test [5] (Homo sapiens, 24 h); 10 nM in test [6]; 63 nM in [7]. Also, the values for the IC50 in [8] and in test [11] were 61 nM and 1300 nM, respectively.
For `O=C(NCC(c1ccccc1)n1cccn1)C1=Nc2ccc(Br)cc2S(=O)(=O)N1` (centres unmarked) [Example 84], the half-inhibitory concentration (IC50) in [1] stood at 778 nM; in test [2], 256 nM; in [3], 83.6 nM; in test [4], 33300 nM; in [5] (Homo sapiens, 24 h), 765 nM; in test [6], 17 nM. The half-inhibitory concentration (IC50) in test [7] came out at 62 nM; in test [8], 426 nM; in test [11], 77000 nM.
As to `O=C(NCCc1ccccc1OC(F)(F)F)C1=Nc2ccc(I)cc2S(=O)(=O)N1` [Example 92], the concentration for half-maximal inhibition (IC50) in test [1] was determined as 367 nM; in test [2] it was 783 nM; in [3], 675 nM; in [4], 21800 nM; in test [5] (Homo sapiens, 24 h), 1390 nM.
On to `O=C(NCCc1ccccc1)C1=Nc2ccc(I)cc2S(=O)(=O)N1` [Example 93], for which the IC50 in [1] is 9200 nM; in [2], 2200 nM; in test [3], 9590 nM; in test [5] (Homo sapiens, 24 h), 30000 nM; in test [6] it was 98 nM; in [7], 1790 nM. The IC50 in [8] is 2000 nM; in [9], 1780 nM; in [10] it was > 10000 nM; in test [11] it was > 125000 nM.
Regarding `O=C(NCCc1ccccc1OC(F)F)C1=Nc2ccc(Br)cc2S(=O)(=O)N1` [Example 115], the IC50 in test [1] came to 423 nM; in [2], 476 nM; in test [3], 229 nM; in [4], 31200 nM; in test [5] (Homo sapiens, 24 h), 1060 nM.
